Data on 35 molecules can be found in PubChem BioAssay (NCI).

Where “and” joins values, the source holds several entries; their conditions need not be identical. Identical values can stand only once.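 The compound was tested at five concentrations on cells cultured in 96-well plates, with a 48-hour exposure period. Here, GI50 denotes the concentration required for 50% inhibition of growth. Definition used: TGI = concentration required for complete inhibition of growth.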

This experiment relates to MDA-MB-468 breast. The experiment can be described thus: NCI anticancer screen, dose series, 48 h.
Regarding `O=C(Nc1ccc(Cl)c(Cl)c1)NS(=O)(=O)c1cnccc1Oc1ccc(F)cc1`, the GI50 was 4.26 µM and the TGI was more than 100 µM.
In the same order, the values of `Nc1ccc(/C=C/C(=O)NCc2cc3cc(-c4ccc(C(=O)N5CCC(F)(F)CC5)cc4)cc(-c4ccc(F)cc4)c3o2)cn1` are 22.6 µM and more than 100 µM.
`COc1cc(NCCCCCCCNC(C)C)c2nccc(C)c2c1`: the GI50 is 3.11 µM and the TGI stood at 14.7 µM.
In the same order, the values of `OC(c1cc2ccc(C(F)(F)F)cc2c2cc(C(F)(F)F)ccc12)C1CCCCN1` (stereo not drawn) are 1.6 µM and 3.09 µM.
For `CCc1c2c(nc3ccc(OC(=O)N4CCC(N5CCCCC5)CC4)cc13)-c1cc3c(c(=O)n1C2)COC(=O)[C@]3(O)CC`, the TGI is 1.79 µM and 1.51 µM and 5.77 µM.
For the molecule `CN1/C(=C\C=C\C2=[N+](C)c3ccccc3C2(C)C)C(C)(C)c2ccccc21`, the GI50 is 0.0217 µM and the TGI was found to be 0.123 µM.
On to `C=C1C(=O)O[C@H]2[C@H]1CC/C(C=Nc1c(N)cc(C(F)(F)F)cc1Br)=C\CC[C@@]1(C)O[C@@H]21`, for which the GI50 was 1.88 µM and the TGI worked out at 4.19 µM.
The like results for `C=C1C(=O)O[C@H]2[C@H]1CC/C(COC(=O)NCC(C)c1ccc(CC(C)C)cc1)=C\CC[C@@]1(C)O[C@@H]21` (stereo partly drawn) were, in that order, 0.656 µM and 1.84 µM.
With `O=C1NC(=O)c2c1c1c3ccccc3ccc1c1[nH]c3ccccc3c21`, the GI50 is 0.953 µM and the TGI was determined as 8.87 µM.
In the case of `COC(=O)C1(C)Cc2cc(OC(C)=O)c(OC(C)=O)cc2N1` (stereo not drawn), the GI50 was 1.9 µM and the TGI was 6.53 µM.
Regarding `CN(C)C(=O)O[C@H]1CN[C@H](C#Cc2cc3ncnc(Nc4ccc(OCc5cccc(F)c5)c(Cl)c4)c3s2)C1`, the GI50 is 0.595 µM and the TGI came to 5.11 µM.
`CCC1=CC2CN(C1)Cc1c([nH]c3ccccc13)[C@@](C(=O)OC)(c1cc3c(cc1OC)N(C)[C@H]1[C@@](O)(C(=O)OC)[C@H](OC(C)=O)[C@]4(CC)C=CCN5CC[C@]31[C@@H]54)C2` (stereo partly drawn): the TGI stood at 21 µM.
As to `C(=N\Nc1nnn(Cc2ccccc2)n1)/c1ccccc1`, the GI50 is 1.48 µM and the TGI came to 11.9 µM.
In the same order, the values of `CCNC(=O)c1noc(-c2cc(C(C)C)c(O)cc2O)c1-c1ccc(CN2CCOCC2)cc1` are less than 0.01 µM and 0.055 µM.
In the case of `COc1ccc(C(=O)c2ccc([As]=O)cc2)cc1` (stereo not drawn), the GI50 was 0.0692 µM and the TGI was 0.242 µM.
In the same order, the values of `CN(C)c1ccc(-c2ccc(-c3ccc(C(=N)N)cc3)s2)cc1` are 1.94 µM and 3.76 µM.
In the case of `O=S(=O)(NCCCNc1nccc(-c2c(-c3ccc(F)cc3)nc3sccn23)n1)c1ccc2ccccc2c1`, the GI50 is 3.87 µM and the TGI is more than 100 µM.
In the same order, the values of `C=C1C[C@@H]2CC[C@@]34C[C@H]5O[C@H]6[C@@H](O3)[C@H]3O[C@H](CC[C@@H]3O[C@H]6[C@@H]5O4)CC(=O)C[C@@H]3[C@@H](OC)[C@@H](C[C@H](O)CN)O[C@H]3C[C@H]3O[C@@H](CC[C@@H]1O2)C[C@@H](C)C3=C` are less than 0.01 µM and 0.0661 µM.
In the same order, the values of `CCOc1ccc(-c2nnc(C3CC(NC(=O)c4cccc5nccnc45)C3)n2-c2ccccc2F)nc1` (stereo not drawn) are 10 µM and 71.5 µM.
Turning to `O=c1oc2ccc(I)cc2c(=O)n1-c1ccc(Cl)cc1F`, the GI50 was 2.11 µM and the TGI was determined as 5.81 µM.
Regarding `O=C1CCCCN1CCCCC#Cc1cccc(C#Cc2cccnc2)c1`, the GI50 was 10.2 µM and the TGI was 28.5 µM.
In the case of `O=C(O)[C@@H](Cc1ccc2ccccc2c1)NC(=O)n1c2ccccc2c2ccccc21`, the GI50 was 1.9 µM and the TGI came out at 7.17 µM.
Regarding `Cc1ccc(-c2nc3nc(-c4ccc(F)cc4)nc(N4CCCNCC4)c3o2)cc1`, the GI50 was 1.58 µM and the TGI amounted to 3.18 µM.
The like results for `COc1ccc(OC)c(Cn2cc3c(c2-c2ccccc2)CCc2cnoc2-3)c1` were, in that order, 2.64 µM and 11.5 µM.
In the same order, the values of `C/C(=N\NC(=S)Nc1ccc(Br)cc1)c1cc2ccccc2oc1=O` are 1.22 µM and 5.82 µM.
The like results for `O=C(N/N=C/c1ccccc1O)c1ccccc1` were, in that order, 0.292 µM and more than 100 µM.
With `O=S(=O)(CCCl)c1ccc(Cl)cc1`, the GI50 is 1.82 µM and the TGI was 5.77 µM.
In the same order, the values of `c1ccc2[nH]c(-c3ccc(Nc4nc(N5CCCCC5)nc(N5CCOCC5)n4)cc3)nc2c1` are 2.68 µM and 6.51 µM.
The like results for `Cn1cc(C2=C(c3cn(C4CCN(Cc5ccccn5)CC4)c4ccccc34)C(=O)NC2=O)c2ccccc21` were, in that order, 2.08 µM and more than 100 µM.
In the same order, the values of `CCCCn1c(-c2ccc(C(=O)O/N=C(\N)c3ccc4c(c3)OCO4)cc2)nc(-c2ccccc2)c1-c1ccccc1` are 3.83 µM and more than 100 µM.
As to `CCCCCCCCCCCCCCCC[N+]1(C)CCOCC1`, the GI50 is 0.374 µM and the TGI came out at 2.16 µM.
On to `O=c1c(F)cn(Cc2ccccc2CCl)c(=O)n1Cc1ccccc1CCl`, for which the GI50 was 0.684 µM and the TGI worked out at 2.27 µM.
As to `CNC(=O)c1nn(C)c2c1C(C)(C)Cc1cnc(Nc3ccc(N4CCN(C)CC4)cc3)nc1-2`, the GI50 was 0.813 µM and the TGI was more than 4.2 µM.
The like results for `O=C1OCC2=C1C(c1ccccc1)c1cc3c(cc1N2CCO)OCO3` (stereo not drawn) were, in that order, 1.22 µM and 4.61 µM.
Turning to `COc1ccc(CN2C3CC2CN(c2ccc(-c4cc(OCC(C)(C)O)cn5ncc(C#N)c45)cn2)C3)cn1`, the GI50 is 8.09 µM and the TGI is more than 100 µM.
